According to patent US12344584B2, “KCNQ potentiators” (Eli Lilly and Company, priority 2019, dated 2025):

Assays:
[1] = Unbound exposure in blood (dry blood spots, LC/MSMS, fraction unbound by dialysis) in threshold tracking study; assay type: in vivo; settings: rat
Protocol: In threshold tracking assay to measure the excitability properties of peripheral axons studies in rat, compound is administered by IP at 3, 10 or 30 mg/kg using 1% hydroxyethylcellulose: 0.25% polysorbate 80:0.05% antifoam:purified water (HEC) formulation. Dry blood spots (DBS) are collected around 10, 20, 30 and terminal 40 min post-dose. DBS samples are dried at RT for around 2 h. Brain samples are obtained at terminal time point and frozen until analysis. DBS samples are shipped and stored at RT.
A 1-mg/mL stock solution of Example 1 is prepared and is serially diluted into pooled rat blood to prepare standards ranging from 1 to 10000 ng/mL. Blood wis spiked to blank DBS cards to make the standards. One 3 mm punch of the DBS standards or samples are added to 96 well plate and 180 μL of the internal standard (IS) in 1:1 ACN:MeOH is added. Shake for 45 min, dilute the extraction solution two fold with water, and analyze by LC/MSMS for drug concentration analysis.
Samples and standards are analyzed with a Sciex API 4000 Triple Quadrupole Mass Spectrometer (Sciex, Division of MDS Inc., Toronto, Canada) coupled to a Shimadzu HPLC System (LC-IOAD, Shimadzu Corporation) and a Gilson 215 Autosampler. […] Quantitation is performed using multiple reaction monitoring (MRM) at the following transitions: Example 1 (m/z 350.2 to m/z 233.0) and an analog internal standard (m/z 263.1 to m/z 148.1). […]
Drug binding to rat plasma proteins and brain homogenates is determined using in vitro dialysis method after spiking drug into these matrixes and incubated over 4.5 h at 37° C., while undergoing orbital shaking. […] Parent is quantitated by LC-MSMS at both 0 and […] time points. Fraction unbound is calculated by dividing the concentration of the buffer side by the concentration of the protein side. Percent recovery is also calculated by dividing the sum of the buffer and protein chambers by the time 0 concentration after 4.5 h. […]

[2] = molecular target: T1, hKv7.2 and hKv7.3 (Kv7.2/7.3) (Homo sapiens, UniProt O43525+O43526); test: Modulation of Kv7.2/7.3 conductance, automated electrophysiology (IonWorks Barracuda, population patch clamp) in HEK293 cells; assay type: cell-based; set-up: Voltage Shift ([…]V0.5), Mean: unit not given here
T1 construct: host or cells: HEK293
Protocol: Modulation of Kv7.2/7.3 Conductance by Kv7 Potentiators in a Mammalian Expression System
The potency and efficacy of Kv7 potentiators is assessed by automated electrophysiology on the IonWorks Barracuda (Molecular Devices) platform using the population patch clamp mode of the instrument.
Cell Culture: HEK293 cells stably expressing hKv7.2 (under tetracycline induction) and hKv7.3 (Catalog #CT6147, Charles River) are used for these studies. Cells are maintained in a Dulbecco's modified Eagle's medium/nutrient mixture Ham's F-12 (Sigma-Aldrich) supplemented with 5% tetracycline-screened fetal bovine serum (Sigma-Aldrich), 15 mM HEPES, 500 μg/mL G418, 100 U/mL penicillin, 100 μg/mL streptomycin, […] L-glutamine, 100 μg/mL zeocin, and 5 μg/mL blasticidin. Expression of hKv7.2 is induced by addition of 1 μg/mL doxycycline 24 h prior to recordings.
Cells are cultured in Corning T-150 flasks to a confluence of 85%-95%. At the start of an experiment, cells are washed once with D-PBS without calcium and magnesium and then dissociated by incubating in 3 ml of 0.25% trypsin for 8 min at 37° C. Cells ware resuspended in media, triturated gently, and centrifuged for 4 min at 1,000 rpm. Cells are resuspended in external solution to a final concentration of 2.5-3.5M cells/mL.
Solutions: External solution w is composed of (in mM): 140 NaCl, 5 KCl, 2 CaCl2, 1 MgCl2, 10 HEPES, 10 Glucose, pH 7.4. Internal solution is composed of (in mM): 90 K-gluconate, 40 KCl, 3.2 EGTA, 3.2 MgCl2, 5 HEPES, pH 7.25. The membrane perforating agent amphotericin B is prepared daily as a 27 mg/mL stock solution in DMSO and then added to the internal solution to a final concentration of 0.1 mg/mL. Test article dilutions are prepared in 384-well plates from 10 mM DMSO stock solutions and diluted using acoustic dispensing (Labcyte ECHO®), such that final DMSO concentrations are 0.1%.
Electrophysiological Recordings: Resuspended cells are placed on the IONWORKS® BARRACUDA™ (IWB) instrument, external solution is added to a 384-well patch plate, and a hole test is performed to determine blocked wells and offset voltages. Cells are then added to the patch plate (9 μL per well) by the instrument. Two seal tests are performed prior to introducing the perforating agent amphotericin in the internal solution and allowing approximately 8 min to obtain electrical access, which is verified by a third seal test. The command voltage protocol consists of a family of 1 sec voltages steps from −80 mV to +40 mV from a holding potential of −80 mV and is applied prior to (baseline) and 6 min after test article addition.
Data Analysis: Data are acquired and leak subtracted using IWB software. Current amplitudes during the last 10 msec of each voltage step are averaged and exported. Further analysis is performed using Microsoft Excel and GraphPad Prism. Current amplitude is converted to conductance (G) by the following formula: G=I/(V−Ek) where I=current, V=step potential, Ek=potassium reversal potential (−84 mV). Conductance in the presence of test article is normalized to the baseline conductance at +40 mV for the same well. Conductance-voltage (G−V) curves are fitted with the Boltzmann equation y=Bottom+(Top−Bottom)/(1+EXP((Vm−V0.5/k)).
Fitting a 4-parameter logistic equation to the data may be used to determine the potency (EC50) and efficacy (maximal shift) for each test compound.

[3] = 4-parameter logistic fit of voltage shift data

- Unbound Exposure in Blood (±SEM) ([1]; 3 mg/kg (IP)): 145 (±90) nM
- Unbound Exposure in Blood (±SEM) ([1]; 10 mg/kg (IP)): 193 (±50) nM
- Unbound Exposure in Blood (±SEM) ([1]; 30 mg/kg (IP)): 352 (±245) nM
- Voltage Shift ([…]V0.5), Mean ([2]; 0.0005 μM): 2.6
- Voltage Shift ([…]V0.5), Mean ([2]; 0.0015 μM): 2.0
- Voltage Shift ([…]V0.5), Mean ([2]; 0.005 μM): 3.0
- Voltage Shift ([…]V0.5), Mean ([2]; 0.01 μM): 1.6
- Voltage Shift ([…]V0.5), Mean ([2]; 0.04 μM): 1.3
- Voltage Shift ([…]V0.5), Mean ([2]; 0.12 μM): 0.0
- Voltage Shift ([…]V0.5), Mean ([2]; 0.37 μM): −3.5
- Voltage Shift ([…]V0.5), Mean ([2]; 1.11 μM): −13.2
- Voltage Shift ([…]V0.5), Mean ([2]; 3.33 μM): −28.0
- Voltage Shift ([…]V0.5), Mean ([2]; 10 μM, difference from control in voltage at half-maximal conductance): −38.0
- Maximal Shift (efficacy) [2, 3]: −44
- Slope [2, 3]: 1.2
- EC50 ([2]; 4-parameter logistic fit of voltage shift data, read-out: EC50 (potency of V0.5 shift)): 2000 nM
Structure (SMILES): CC(C)(C)[C@H](O)CNC(=O)NCc1ccnc(OCC(F)(F)F)c1 [Example 1, 1-[(2S)-2-hydroxy-3,3-dimethyl-butyl]-3-[[2-(2,2,2-trifluoroethoxy)-4-pyridyl]methyl]urea]
